# Laboratory results: patent US20180284123A1, “BARCODED RAPID ASSAY PLATFORM USEFUL FOR EFFICIENT ANALYSIS OF CANDIDATE MOLECULES AND METHODS OF MAKING AND USING THE PLATFORM” (California Institute of Technology, priority 2017, published 2018)
# Assays:
# [1] = biological target: T1, KRAS (Homo sapiens, UniProt P01116); assay: Barcoded rapid assay microchip binding curves of FIG. 6A/6B; conditions: fitted curves of FIG. 6B, Hill coefficient set to 1, triplicate
# T1 construct: His6-tagged human KRas Isoform 4B (residues 1-169); His6; made in house; host or cells: E. coli BL21(DE3), PQE80 vector
# Protocol: FIG. 6A is a picture of a barcoded rapid assay microchip (60) following its use for binding curve assays of KRAS to candidate ligands. […] EC50 binding curves of 15 candidate ligands were simultaneously generated against the target protein KRAS. Each microwell (ovals) represents a distinct concentration of KRAS that was added (values are given above each well). All 15 candidate ligands were measured in triplicate in each microwell.
# FIG. 6B is a graph of the EC50 binding curves generated from the barcoded rapid assay microchip of FIG. 6A. Images of the barcoded rapid assay microchip were digitized using a fluorescence image scanner and plotted as binding curves (61) for each of the candidate ligands. All binding curves were fitted to Hill functions, with the Hill coefficient set to 1.
# A series of peptide ligands that were identified as candidate binders to the protein KRas, using known literature methods, were prepared according to the methods of FIG. 3, and assembled into the individual microwells of the barcoded rapid assay microchip as illustrated in FIG. 4. […] Fluorescence imaging of the individual wells was then used to generate a fluorescence intensity, vs KRAS concentration, for each of the individual candidate ligands. […]
# [2] = biological target: T1, KRAS; assay: B-RAP surface immunofluorescent assay, PCC ligand KRas EC50; type: binding
# Protocol: The barcode patterned microchip surface was partitioned into 16 individual microwells using a pre-fabricated PDMS slab. Individual biotinylated PCC candidates were complexed to specific SAC-DNA conjugates, combined into a cocktail, and then self-assembled, via DNA hybridization, onto designated barcode stripes (FIGS. 2-4). Incubation with a specific concentration of the target protein preceded incubation with a primary capture antibody and then a fluorophore-conjugated secondary detection antibody. During assay execution, each well represents a different target concentration or assay condition. Once developed, the fluorescence of the barcodes is digitized using a GenePix 4400A array scanner, with an excitation laser power optimized to a power level of 40% (60 W), which maximizes detection sensitivity while also minimizing signal saturation. Data extraction occurs using 10 μm radius circles, taken along the length of a barcode stripe. A fluorescence signal representing the average of all the pixels within a given circle is collected. A total of ten circles (data-blocks) are measured along a 180 μm span of the middle portion for each individual barcode lane in a given well. 10 μM KRas protein gave an average F635 of 47,868.7, with a standard deviation of 4154.53. 1 μM KRas protein gave an average F635 of 11437.6, with a standard deviation of 1602.202. 100 nM KRas protein gave an average F635 of 1780.6, with a standard deviation of 236.38. This illustrates the intensity across a stripe compared to the intensity from the data-block extraction. After extraction the data is background corrected. The background signal arises from (a) non-specific binding of the primary and secondary antibodies (independent of [KRas]), but can vary across different barcode stripes), and (b) non-specific binding of KRas protein ([KRas] dependent). Background (a) was assessed by measuring the average signal in the null protein well for each stripe. Background (b) was assessed by measuring the average fluorescence for the dummy ligand (Biotin* probe) that was in each well. The background subtracted data was then graphed in Graphpad Prism 7 and fitted to a sigmoidal curve (Hill coefficient=1).
# Measurement of PCC Ligand KRas EC50 with the Barcode Rapid Assay Platform
# Protein Incubation Buffer: Tris-buffered saline (TBS)+0.05% Tween20 (TBST)
# A pre-fabricated PDMS template was aligned onto the DNA barcode microchip, and the microchip was taped into a 10 cm petri dish. The wells on the platform were wet with 50 μL PBST before filling with blocking buffer and placing into a 37° C. incubator for 1 hr. Concurrently, 40 μL 1% BSA in PBS solutions containing 750 nM of a SAC-DNA conjugate and 3.75 μM of one biotinylated PCC ligand or biotin-A20-Cy3 blank were prepared for each SAC-DNA conjugate. The biotinylated ligands were allowed to complex with the SAC protein for one hour before pooling the SAC-DNA-ligand solutions (final [SAC-DNA-ligand conjugates]=50 nM). The blocking buffer was aspirated and each well was loaded with the SAC-DNA-ligand conjugates cocktail for hybridization with the DNA barcode at 37° C. for one hour. The wells were washed with PBST (3×) before loading serially diluted solutions of KRas protein in protein buffer (0 to 400 μM). After shaking at RT for one hour, the wells were rinsed with PBST (5×), making sure to pipet up/down with the first addition of PB ST. A (100:1) dilution of CST rabbit anti-Ras Ab (#39655) in 1° ab buffer was added to each well before shaking at RT for one hour. After rinsing the wells with PBST (3×), the wells were loaded with a (200:1) dilution of Abcam goat anti-rabbit-Alexafluor 647 linked ab (ab150079) in 2° ab buffer before shaking at RT for one hour. A final rinse of the wells with PBST (3×) proceeded peeling off the PDMS slab from the barcode microchip and dipping the barcode into the following solutions: PBS, (1:1) PBS: MQ H2O, MQ H2O (2×). […]
# [3] = biological target: T1, KRAS; assay: Multi-well ELISA, PCC ligand KRas EC50; type: binding; conditions: triplicate, KRas 0→300 μM, Hill coefficient=1
# Protocol: Measurement of PCC Ligand KRas EC50 Using the Multi-Well ELISA Technology
# A 96-well Pierce Neutravidin Plate was washed with binding buffer (3×5 minutes at RT) before loading plate with a 1 μM solution of either blank (biotin-PEG5-NHAc) (singly) or biotinylated PCC ligand (in triplicate). The plate incubated for two hours before washing with binding buffer (3×5 minutes). Blocking buffer was added to each well and the plate blocked for one hour before undergoing washing with binding buffer (3×5 minutes). Each well was loaded with either binding buffer or KRas solution (0→300 μM), and the plate was incubated for 30 minutes. Plate washing with binding buffer (3×5 minutes) preceded incubating the plate with a (1000:1) dilution of 1° antibody (ab) rabbit anti-Ras (CST #3965) in ab buffer for thirty minutes. The plate was washed with binding buffer (3×5 minutes), loaded with a (2000:1) dilution of 2° ab goat anti-rabbit, HRP-linked ab (CST #7074) in ab buffer, and incubated for an additional thirty minutes. […] After quenching the enzymatic reaction with 1M H2SO4(aq) (100 μL) the plate was read at λ=450 nm within ten minutes. The data was double background corrected using the ab only absorbance and the dummy ligand absorbance, plotted using Prism GraphPad 7 (Sigmoidal 4PL mode with the Hill coefficient set=1), and an EC50 value was calculated.
# T1 sequence (P01116 1-169 isoform P01116-2): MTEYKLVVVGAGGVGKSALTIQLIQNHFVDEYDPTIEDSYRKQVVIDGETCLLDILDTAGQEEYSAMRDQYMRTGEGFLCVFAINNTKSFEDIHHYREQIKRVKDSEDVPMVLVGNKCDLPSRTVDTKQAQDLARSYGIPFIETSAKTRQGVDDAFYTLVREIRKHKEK
structure (smiles),measurement,setting,value
"NC(=O)CC[C@@H]1NC(=O)[C@@H](N)Cc2cn(nn2)CCCC[C@@H](C(=O)NCCOCCOCCOCCOCCOCCC(=O)NCCNC(=O)CCCC[C@@H]2SC[C@@H]3NC(=O)N[C@@H]32)NC(=O)[C@H](Cc2ccc(O)cc2)NC(=O)[C@H](Cc2ccccc2)NC(=O)[C@H](CC(N)=O)NC(=O)[C@H](CC(=O)O)NC1=O (single isomer, unassigned) [Ligand L9a, QDNFY]",EC50,[1],6.55 µM
same,"Avg F635, Full Centroid","[2]; 10 μM KRas well of plate #1, pixel by pixel, full centroid",18391
same,"Avg F635, Full Lane","[2]; 10 μM KRas well of plate #1, pixel by pixel, full lane",16612
same,"avg F635, Left Part Centroid","[2]; 10 μM KRas well of plate #1, pixel by pixel, left part of centroid",14966
same,"avg F635, Middle Part Centroid","[2]; 10 μM KRas well of plate #1, pixel by pixel, middle part of centroid",20262
same,"avg F635, Right Part Centroid","[2]; 10 μM KRas well of plate #1, pixel by pixel, right part of centroid",20045
same,EC50,"[2]; 13-point KRas concentration series, each point in decaplicate, Hill coefficient=1",5.43 ± 1 µM
same,EC50,[3],2.18 ± 2.7 µM
